{"source": "ChEMBL document CHEMBL5608226", "about": "“Innovative Ketamine Formulations: Enhancing Therapeutic Efficacy and Safety” (ACS Med Chem Lett, 2024)", "key": {"[1]": {"test": "Ratio of AUC (0 to 4 hr) for test compound to AUC (0 to 4 hr) for Ketamine HCL in Sprague-Dawley rat at 4.64 mg/kg,po administration measured upto 4 hrs", "assay_type": "ADME, organism-based", "settings": "in vivo"}, "[2]": {"test": "Ratio of Cmax for test compound to Cmax for Ketamine HCL in Sprague-Dawley rat at 4.64 mg/kg,po administration measured upto 4 hrs", "assay_type": "ADME, organism-based", "settings": "in vivo"}}, "data": [{"compound": "CN(C(=O)OC[n+]1cccc(C(=O)N2CCC[C@H]2C(=O)O)c1)C1(c2ccccc2Cl)CCCCC1=O.[Cl-]", "note": "(some centres not stated)", "values": [{"measurement": "Ratio", "setting": "[1]", "value": 166, "unit": "%"}, {"measurement": "Ratio", "setting": "[2]", "value": 178, "unit": "%"}]}, {"compound": "CN(C(=O)OC[n+]1cccc(C(=O)N[C@@H](CCCCN)C(=O)O)c1)C1(c2ccccc2Cl)CCCCC1=O.Cl.[Cl-]", "note": "(some centres not stated)", "values": [{"measurement": "Ratio", "setting": "[1]", "value": 75.4, "unit": "%"}, {"measurement": "Ratio", "setting": "[2]", "value": 71.2, "unit": "%"}]}, {"compound": "CN(CC(=O)O)C(=O)c1ccc[n+](COC(=O)N(C)C2(c3ccccc3Cl)CCCCC2=O)c1.[Cl-]", "note": "(configuration not stated)", "values": [{"measurement": "Ratio", "setting": "[1]", "value": 93.9, "unit": "%"}, {"measurement": "Ratio", "setting": "[2]", "value": 112, "unit": "%"}]}, {"compound": "CC[C@H](C)[C@H](NC(=O)c1ccc[n+](COC(=O)N(C)C2(c3ccccc3Cl)CCCCC2=O)c1)C(=O)O.[Cl-]", "note": "(some centres not stated)", "values": [{"measurement": "Ratio", "setting": "[1]", "value": 223, "unit": "%"}, {"measurement": "Ratio", "setting": "[2]", "value": 246, "unit": "%"}]}, {"compound": "CC(C)[C@H](NC(=O)c1ccc[n+](COC(=O)N(C)C2(c3ccccc3Cl)CCCCC2=O)c1)C(=O)O.[Cl-]", "note": "(some centres not stated)", "values": [{"measurement": "Ratio", "setting": "[1]", "value": 160, "unit": "%"}, {"measurement": "Ratio", "setting": "[2]", "value": 223, "unit": "%"}]}, {"compound": "C[C@H](NC(=O)c1ccc[n+](COC(=O)N(C)C2(c3ccccc3Cl)CCCCC2=O)c1)C(=O)O.[Cl-]", "note": "(some centres not stated)", "values": [{"measurement": "Ratio", "setting": "[1]", "value": 63.2, "unit": "%"}, {"measurement": "Ratio", "setting": "[2]", "value": 73.7, "unit": "%"}]}]}
